# Experimental data published in patent US8163921B2, “Hepatitis C virus inhibitors” (Bristol-Myers Squibb Company, priority 2008, dated 2012).
# Like-named read-outs stand apart in the source and are kept apart here.
# Key:
# [1] = biological target: T1, HCV NS3/4A protease complex, BMS strain (UniProt P27958, C1454S/C1711G, species not given); experiment: FRET peptide assay to monitor HCV NS3/4A proteolytic activity (BMS strain); assay type: biochemical, HCV genotype 1a; settings: read-out: IC50 Range, HCV NS3/4A enzyme assay
# T1 construct: other: HCV NS3/4A enzyme assay; class symbols; numeric values; fused on or other part: three-lysine solubilising tail at the C-terminus of NS4A; purified on Ni-NTA from the pET21b vector (His tag implied)
# Text: HCV NS3 protease complexes, derived from the BMS strain, H77 strain or J4L6S strain, were generated, as described below. These purified recombinant proteins were generated for use in a homogeneous assay (see below) to provide an indication of how effective compounds of the present disclosure would be in inhibiting HCV NS3 proteolytic activity.
# Serum from an HCV-infected patient was obtained from Dr. T. Wright, San Francisco Hospital. An engineered full-length cDNA (compliment deoxyribonucleic acid) template of the HCV genome (BMS strain) was constructed from DNA fragments obtained by reverse transcription-PCR (RT-PCR) of serum RNA (ribonucleic acid) and using primers selected on the basis of homology between other genotype 1a strains. From the determination of the entire genome sequence, a genotype 1a was assigned to the HCV isolate according to the classification of Simmonds et al. (See P Simmonds, K A Rose, S Graham, S W Chan, F McOmish, B C Dow, E A Follett, P L Yap and H Marsden, J. Clin. Microbiol., 31(6), 1493-1503 (1993)). […] The infectious clones, H77 (1a genotype) and J4L6S (1b genotype) were obtained from R. Purcell (NIH) and the sequences are published in Genbank (AAB67036, see Yanagi, M., Purcell, R. H., Emerson, S. U. and Buldi, J. Proc. Natl. Acad. Sci. U.S.A. 94(16),8738-8743 (1997); AF054247, see Yanagi, M., St Claire, M., Shapiro, M., Emerson, S. U., Purcell, R. H. and Bukh, J, Virology 244 (1), 161-172. (1998)).
# NS3/4A protease complex-containing fractions were pooled and loaded on a desalting column Superdex-S200 pre-equilibrated with buffer D (25 mM HEPES, pH 7.5, 20% glycerol, 300 mM NaCl, 0.2% TritonX-100, 10 mM βMB). Sample was loaded at a flow rate of 1 mL/min. NS3/4A protease complex-containing fractions were pooled and concentrated to approximately 0.5 mg/ml. The purity of the NS3/4A protease complexes, derived from the BMS, H77 and J4L6S strains, were judged to be greater than 90% by SDS-PAGE and mass spectrometry analyses. The enzyme was stored at −80° C., thawed on ice and diluted prior to use in assay buffer.
# The purpose of this in vitro assay was to measure the inhibition of HCV NS3 protease complexes, derived from the BMS strain, H77 strain or J4L6S strain, as described above, by compounds of the present disclosure. This assay provides an indication of how effective compounds of the present disclosure would be in inhibiting HCV NS3 proteolytic activity.
# In order to monitor HCV NS3/4A protease activity, an NS3/4A peptide substrate was used. The substrate was RET S1 (Resonance Energy Transfer Depsipeptide Substrate; AnaSpec, Inc. cat #22991)(FRET peptide), described by Taliani et al. in Anal. Biochem. 240(2):60-67 (1996). The sequence of this peptide is loosely based on the NS4A/NS4B natural cleavage site for the HCV NS3 protease except there is an ester linkage rather than an amide bond at the cleavage site. The peptide also contains a fluorescence donor, EDANS, near one end of the peptide and an acceptor, DABCYL, near the other end. The fluorescence of the peptide is quenched by […] resonance energy transfer (RET) between the donor and the acceptor, but as the NS3 protease cleaves the peptide the products are released from RET quenching and the fluorescence of the donor becomes apparent.
# The peptide substrate was incubated with one of the three recombinant NS3/4A protease complexes, in the absence or presence of a compound of the present disclosure. The inhibitory effects of a compound were determined by monitoring the formation of fluorescent reaction product in real time using a Cytofluor Series 4000.
# Assay buffer: 50 mM HEPES, pH 7.5; 0.15 M NaCl; 0.1% Triton; 15% Glycerol; 10 mM βME. Substrate: 2 μM final concentration (from a 2 mM stock solution in DMSO stored at −20° C.). HCV NS3/4A protease type 1a (1b), 2-3 nM final concentration (from a 5 μM stock solution in 25 mM HEPES, pH 7.5, 20% glycerol, 300 mM NaCl, 0.2% Triton-X100, 10 mM βME). […]
# [2] = system: HCV replicon in HUH-7 cells; experiment: HCV replicon FRET assay; assay type: cell-based, HCV strain 1b; settings: Hepatitis C virus
# Text: An HCV replicon whole cell system was established as described by Lohmann V, Korner F, Koch J, Herian U, Theilmann L, Bartenschlager R., Science 285(5424):110-3 (1999). This system enabled us to evaluate the effects of our HCV Protease compounds on HCV RNA replication. Briefly, using the HCV strain 1b sequence described in the Lohmann paper (Assession number:AJ238799), an HCV cDNA was synthesized by Operon Technologies, Inc. (Alameda, Calif.), and the full-length replicon was then assembled in plasmid pGem9zf(+) (Promega, Madison, Wis.) using standard molecular biology techniques. The replicon consists of (i) the HCV 5′ UTR fused to the first 12 amino acids of the capsid protein, (ii) the neomycin phosphotransferase gene (neo), (iii) the IRES from encephalomyocarditis virus (EMCV), and (iv) HCV NS3 to NS5B genes and the HCV 3′ UTR. Plasmid DNAs were linearized with ScaI and RNA transcripts were synthesized in vitro using the T7 MegaScript transcription kit (Ambion, Austin, Tex.) according to manufacturer's directions. In vitro transcripts of the eDNA were transfected into the human hepatoma cell line, HUH-7. […] Resulting cell lines were characterized for positive and negative strand RNA production and protein production over time.
# The HCV replicon FRET assay was developed to monitor the inhibitory effects of compounds described in the disclosure on HCV viral replication. HUH-7 cells, constitutively expressing the HCV replicon, were grown in Dulbecco's Modified Eagle Media (DMEM) (Gibco-BRL) containing 10% Fetal calf serum (FCS) (Sigma) and 1 mg/ml G418 (Gibco-BRL). Cells were seeded the night before (1.5×10^4 cells/well) in 96-well tissue-culture sterile plates. Compound and no compound controls were prepared in DMEM containing 4% FCS, 1:100 Penicillin/Streptomysin (Gibco-BRL), 1:100 L-glutamine and 5% DMSO in the dilution plate (0.5% DMSO final concentration in the assay). Compound/DMSO mixes were added to the cells and incubated for 4 days at 37° C. After 4 days, cells were first assessed for cytotoxicity using alamar Blue (Trek Diagnotstic Systems) for a CC50 reading. The toxicity of compound (CC50) was determined by adding 1/10th volume of alamar Blue to the media incubating the cells. After 4 h, the fluorescence signal from each well was read, with an excitation wavelength at 530 nm and an emission wavelength of 580 nm, using the Cytofluor Series 4000 (Perspective Biosystems). Plates were then rinsed thoroughly with Phosphate-Buffered Saline (PBS) (3 times 150 μl).
SMILES,IC50 ([1]; numeric values) [nM],"EC50 ([2]; Huh-7, HCV replicon cell assay, numeric values, read-out: EC50 Range) [nM]",IC50 ([1]; class symbols) [nM],"EC50 ([2]; Huh-7, read-out: EC50 Range) [nM]"
"C=C[C@@H]1C[C@]1(NC(=O)[C@@H]1C[C@@H](Oc2ncc(OC)c3ccc(Cl)cc23)CN1C(=O)C(Nc1ccc(-c2ccccc2)c(OC)c1)C(C)(C)C)C(=O)NS(=O)(=O)C1CC1 (single isomer, unassigned) [Example 18A]",54,78.1,–,–
C=C[C@@H]1C[C@]1(NC(=O)[C@@H]1C[C@@H](Oc2cc(-c3ccccc3)nc3cc(OC)ccc23)CN1C(=O)[C@@H](Nc1nc(-c2ccccc2)cs1)C(C)(C)C)C(=O)NS(=O)(=O)C1CC1 [Example 1],–,–,1 to 20,1 to 50
C=C[C@@H]1C[C@]1(NC(=O)[C@@H]1C[C@@H](Oc2cc(-c3ccccc3)nc3cc(OC)ccc23)CN1C(=O)[C@@H](Nc1nc(-c2ccccc2OC)cs1)C(C)(C)C)C(=O)NS(=O)(=O)C1CC1 [Example 2],–,–,1 to 20,1 to 50
C=C[C@@H]1C[C@]1(NC(=O)[C@@H]1C[C@@H](Oc2cc(-c3ccccc3)nc3cc(OC)ccc23)CN1C(=O)[C@@H](Nc1nc(-c2cccc(OC)c2)cs1)C(C)(C)C)C(=O)NS(=O)(=O)C1CC1 [Example 3],–,–,1 to 20,1 to 50
C=C[C@@H]1C[C@]1(NC(=O)[C@@H]1C[C@@H](Oc2cc(-c3ccccc3)nc3cc(OC)ccc23)CN1C(=O)[C@@H](Nc1nc(-c2ccc(OC)cc2)cs1)C(C)(C)C)C(=O)NS(=O)(=O)C1CC1 [Example 4],–,–,1 to 20,1 to 50
C=C[C@@H]1C[C@]1(NC(=O)[C@@H]1C[C@@H](Oc2cc(-c3ccccc3)nc3cc(OC)ccc23)CN1C(=O)[C@@H](Nc1nc(-c2ccc(F)cc2)cs1)C(C)(C)C)C(=O)NS(=O)(=O)C1CC1 [Example 5],–,–,1 to 20,1 to 50
"C=C[C@@H]1C[C@]1(NC(=O)[C@@H]1C[C@@H](Oc2ncc(OC)c3ccc(Cl)cc23)CN1C(=O)[C@@H](Nc1nc(-c2ccc(F)c(F)c2)cs1)C(C)(C)C)C(=O)NS(=O)(=O)C1CC1 [Example 6, (2S,4R)-4-(7-chloro-4-methoxyisoquinolin-1-yloxy)-N-((1R,2S)-1-(cyclopropylsulfonylcarbamoyl)-2-vinylcyclopropyl)-1-((S)-2-(4-(3,4-difluorophenyl)thiazol-2-ylamino)-3,3-dimethylbutanoyl)pyrrolidine-2-carboxamide]",–,–,1 to 20,1 to 50
C=C[C@@H]1C[C@]1(NC(=O)[C@@H]1C[C@@H](Oc2ncc(OC)c3ccc(Cl)cc23)CN1C(=O)[C@@H](Nc1nc(-c2ccc(OC)cc2)cs1)C(C)(C)C)C(=O)NS(=O)(=O)C1CC1 [Example 7],–,–,1 to 20,1 to 50
C=C[C@@H]1C[C@]1(NC(=O)[C@@H]1C[C@@H](Oc2ncc(OC)c3ccc(Cl)cc23)CN1C(=O)[C@@H](Nc1nc(-c2ccc(OC(F)F)cc2)cs1)C(C)(C)C)C(=O)NS(=O)(=O)C1CC1 [Example 8],–,–,1 to 20,1 to 50
"C=C[C@@H]1C[C@]1(NC(=O)[C@@H]1C[C@@H](Oc2ncc(OC)c3ccc(Cl)cc23)CN1C(=O)[C@@H](Nc1nc(-c2ccccc2)c(C)s1)C(C)(C)C)C(=O)NS(=O)(=O)C1CC1 [Example 9, (2S,4R)-4-(7-chloro-4-methoxyisoquinolin-1-yloxy)-N-((1R,2S)-1-(cyclopropylsulfonylcarbamoyl)-2-vinylcyclopropyl)-1-((S)-3,3-dimethyl-2-(5-methyl-4-phenylthiazol-2-ylamino)butanoyl)pyrrolidine-2-carboxamide]",–,–,1 to 20,1 to 50
C=C[C@@H]1C[C@]1(NC(=O)[C@@H]1C[C@@H](Oc2ncc(OC)c3ccc(Cl)cc23)CN1C(=O)[C@@H](Nc1nc(-c2ccc(S(C)(=O)=O)cc2)cs1)C(C)(C)C)C(=O)NS(=O)(=O)C1CC1 [Example 89],–,–,1 to 20,–
C=C[C@@H]1C[C@]1(NC(=O)[C@@H]1C[C@@H](Oc2ncc(OC)c3ccc(Cl)cc23)CN1C(=O)[C@@H](Nc1nc(-c2sccc2Cl)cs1)C(C)(C)C)C(=O)NS(=O)(=O)C1CC1 [Example 90],–,–,1 to 20,–
C=C[C@@H]1C[C@]1(NC(=O)[C@@H]1C[C@@H](Oc2ncc(OC)c3ccc(Cl)cc23)CN1C(=O)[C@@H](Nc1nc(-c2ccc(Oc3ccccc3)cc2)cs1)C(C)(C)C)C(=O)NS(=O)(=O)C1CC1 [Example 91],–,–,1 to 20,–
C=C[C@@H]1C[C@]1(NC(=O)[C@@H]1C[C@@H](Oc2ncc(OC)c3ccc(Cl)cc23)CN1C(=O)[C@@H](Nc1nc(-c2cccc(C(F)(F)F)c2)cs1)C(C)(C)C)C(=O)NS(=O)(=O)C1CC1 [Example 94],–,–,1 to 20,–
C=C[C@@H]1C[C@]1(NC(=O)[C@@H]1C[C@@H](Oc2ncc(OC)c3ccc(Cl)cc23)CN1C(=O)[C@@H](Nc1nc(-c2ccccc2C(F)(F)F)cs1)C(C)(C)C)C(=O)NS(=O)(=O)C1CC1 [Example 95],17,–,–,–
C=C[C@@H]1C[C@]1(NC(=O)[C@@H]1C[C@@H](Oc2ncc(OC)c3ccc(Cl)cc23)CN1C(=O)[C@@H](Nc1nc(-c2nc3ccccc3s2)cs1)C(C)(C)C)C(=O)NS(=O)(=O)C1CC1 [Example 96],–,–,1 to 20,–
